Source: US12152048B2, “Nitroxoline prodrug and use thereof” (Jiangsu Yahong Meditech Co., Ltd., priority 2018, dated 2024)
Values after ≈ are worked out from the molar mass of the structure shown.

Tests used:
[1] = Determination of water solubility in phosphate buffer; type: physicochemical; conditions: for solubility at 24 h: aqueous buffer, thermodynamic from solid, phosphate buffer pH 7.4, room temperature; for water solubility compared with nitroxoline: conclusion in words
Source text: Experimental instruments: 96-well filter plate (MSHVN4510 or MSHVN4550, Millipore); electronic digital display vortex mixer (MS3 Digital, IKA); multi-purpose vacuum pump (circulating water type, SHB-111, Zhengzhou Greatwall Scientific Industrial and Trade Co., Ltd.); balance (XSLT05, Mettler-Toledo); comfortable mixer (Eppendorf AG 22331 Hamburg, Eppendorf); liquid chromatography (LC-3AD, Shimadzu); mass spectrometry (API4000, Applied Biosystems, USA); sample injector (Anylytics AG System, CTC). Nitroxoline was prepared according to the method disclosed in Journal of Heterocyclic Chemistry, 1971, vol. 8, p 821 by Wisdom Pharmaceutical Co., Ltd.
Experimental process: 500 μL of phosphate buffer (pH=1.2, 4.5, 6.8 or 7.4) were added to a glass flask, to which 2 mg of compound powder were added. The flask was sealed with a cap and shaked on a mixer (VORTEX-GENIE2) at room temperature for 24 hours. The solution was subjected to vacuum filtration, and the filtrate was processed to determine the compound concentration by LC/MS/MS.

[2] = Stability in mouse liver microsome; type: in vitro ADME; conditions: 2 μM, 37° C., 30 minutes
[3] = Stability in dog liver microsome; conditions: 2 μM, 37° C., 30 minutes
[4] = Stability in rat liver microsome; conditions: 2 μM, 37° C., 30 minutes
[5] = Stability in human liver microsome; conditions: 2 μM, 37° C., 30 minutes

Structure (SMILES)	solubility at 24 h [1] [µg/mL]	Percentage of the compound remaining in mouse liver microsome ([2]; with coenzyme) [%]	Percentage of the compound remaining in mouse liver microsome ([2]; without coenzyme) [%]	Percentage of the compound remaining in dog liver microsome ([3]; with coenzyme) [%]	Percentage of the compound remaining in dog liver microsome ([3]; without coenzyme) [%]	Percentage of the compound remaining in rat liver microsome ([4]; with coenzyme) [%]	Percentage of the compound remaining in rat liver microsome ([4]; without coenzyme) [%]	Percentage of the compound remaining in human liver microsome ([5]; with coenzyme) [%]	Percentage of the compound remaining in human liver microsome ([5]; without coenzyme) [%]	water solubility compared with nitroxoline [1]
CC(=O)OCOc1ccc([N+](=O)[O-])c2cccnc12 [Compound 1, (5-nitroquinolin-8-yloxy)methyl acetate]	91.1	0.16	0.27	0.42	0.73	0.15	0.27	0.24	0.76	
CCC(=O)OCOc1ccc([N+](=O)[O-])c2cccnc12 [Compound 2, (5-nitroquinolin-8-yloxy)methyl propionate]	72.7 (≈ 263 µM)	0.10	0.02	0.13	0.18	0.52	0.45	0.27	0.16	
CC(C)C(=O)OCOc1ccc([N+](=O)[O-])c2cccnc12 [Compound 3, (5-nitroquinolin-8-yloxy)methyl isobutyrate]	59.2 (≈ 204 µM)	0.01	0.01	0.16	0.19	0.08	0.04	0.05	0.06	
CCCOC(=O)N1CCC[C@H]1C(=O)OCOc1ccc([N+](=O)[O-])c2cccnc12 [Compound 18, (S)-2-(5-nitroquinolin-8-yloxy)methyl 1-propyl pyrrolidine-1,2-dicarboxylate]	132 (≈ 328 µM)	0.26	0.00	0.14	1.40	0.06	4.63	2.65	5.06	increased by several times
CC(=O)OC(C)Oc1ccc([N+](=O)[O-])c2cccnc12 (stereo not drawn) [Compound 47, 1-(5-nitroquinolin-8-yloxy)ethyl acetate]	285	0.04	0.04	0.01	0.02	0.01	0.02	0.03	0.02	
CC(OC(=O)C(C)C)Oc1ccc([N+](=O)[O-])c2cccnc12 (stereo not drawn) [Compound 49, 1-(5-nitroquinolin-8-yloxy)ethyl isobutyrate]	105 (≈ 344 µM)	0.01	0.03	0.01	0.01	0.01	0.03	0.03	0.03	
CC(=O)N(C)CC(=O)OCc1cccnc1N(C)C(=O)OCOc1ccc([N+](=O)[O-])c2cccnc12 [Compound 65]	965 (≈ 1940 µM)	0.72	2.63	65.08	93.36	4.33	59.38	29.88	39.15	increased by several times
CN(CC(=O)OCc1cccnc1N(C)C(=O)OCOc1ccc([N+](=O)[O-])c2cccnc12)C(=O)C(C)(C)C [Compound 66]	540 (≈ 1000 µM)	0.02	4.32	13.05	67.43	0.06	12.10	9.77	74.45	increased by several times
CN(C)C(=O)Oc1ccc([N+](=O)[O-])c2cccnc12 [Compound 78, 5-nitroquinolin-8-yl dimethylcarbamate]	226 (≈ 863 µM)	0.00	100.18	0.36	98.41	2.40	91.50	14.46	90.37	
